# System: SEM cells
# Experiment: cell viability relative to DMSO control; higher = less cytotoxic
# Details: 48 h
# How it was run: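 Library compounds in DMSO were pin-dosed into 1536-well plates (5 μl) holding NOMO1 or SEM (500 cells/well) or P12-Ichikawa (1000 cells/well) leukemia cells, across an 11-point threefold series of 47 μM to 0.79 nM. Each cell line had been adapted for at least four passages in each medium. CellTiter-Glo One luminescence was read after 48 h at 37°C. Viability is the per-plate percentage relative to DMSO wells, with cell-free wells as background.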
# [1] = HPLM + 10% dialyzed FBS, 0.000781 µM
# [2] = HPLM + 10% dialyzed FBS, 0.00234 µM
# [3] = HPLM + 10% dialyzed FBS, 0.00702 µM
# [4] = HPLM + 10% dialyzed FBS, 0.0211 µM
# [5] = HPLM + 10% dialyzed FBS, 0.0632 µM
# [6] = HPLM + 10% dialyzed FBS, 0.19 µM
# [7] = HPLM + 10% dialyzed FBS, 0.569 µM
# [8] = HPLM + 10% dialyzed FBS, 1.71 µM
# [9] = HPLM + 10% dialyzed FBS, 5.12 µM
# [10] = HPLM + 10% dialyzed FBS, 15.4 µM
# [11] = HPLM + 10% dialyzed FBS, 46.1 µM
# [12] = RPMI 5 mM glucose + 10% FBS, 0.000781 µM
# [13] = RPMI 5 mM glucose + 10% FBS, 0.00234 µM
# [14] = RPMI 5 mM glucose + 10% FBS, 0.00702 µM
# [15] = RPMI 5 mM glucose + 10% FBS, 0.0211 µM
# [16] = RPMI 5 mM glucose + 10% FBS, 0.0632 µM
# [17] = RPMI 5 mM glucose + 10% FBS, 0.19 µM
# [18] = RPMI 5 mM glucose + 10% FBS, 0.569 µM
# [19] = RPMI 5 mM glucose + 10% FBS, 1.71 µM
# [20] = RPMI 5 mM glucose + 10% FBS, 5.12 µM
# [21] = RPMI 5 mM glucose + 10% FBS, 15.4 µM
# [22] = RPMI 5 mM glucose + 10% FBS, 46.1 µM
# [23] = RPMI 5 mM glucose + 10% dialyzed FBS, 0.000781 µM
# [24] = RPMI 5 mM glucose + 10% dialyzed FBS, 0.00234 µM
# [25] = RPMI 5 mM glucose + 10% dialyzed FBS, 0.00702 µM
# [26] = RPMI 5 mM glucose + 10% dialyzed FBS, 0.0211 µM
# [27] = RPMI 5 mM glucose + 10% dialyzed FBS, 0.0632 µM
# [28] = RPMI 5 mM glucose + 10% dialyzed FBS, 0.19 µM
# [29] = RPMI 5 mM glucose + 10% dialyzed FBS, 0.569 µM
# [30] = RPMI 5 mM glucose + 10% dialyzed FBS, 1.71 µM
# [31] = RPMI 5 mM glucose + 10% dialyzed FBS, 5.12 µM
# [32] = RPMI 5 mM glucose + 10% dialyzed FBS, 15.4 µM
# [33] = RPMI 5 mM glucose + 10% dialyzed FBS, 46.1 µM
SMILES,cell viability [1] [%],cell viability [2] [%],cell viability [3] [%],cell viability [4] [%],cell viability [5] [%],cell viability [6] [%],cell viability [7] [%],cell viability [8] [%],cell viability [9] [%],cell viability [10] [%],cell viability [11] [%],cell viability [12] [%],cell viability [13] [%],cell viability [14] [%],cell viability [15] [%],cell viability [16] [%],cell viability [17] [%],cell viability [18] [%],cell viability [19] [%],cell viability [20] [%],cell viability [21] [%],cell viability [22] [%],cell viability [23] [%],cell viability [24] [%],cell viability [25] [%],cell viability [26] [%],cell viability [27] [%],cell viability [28] [%],cell viability [29] [%],cell viability [30] [%],cell viability [31] [%],cell viability [32] [%],cell viability [33] [%]
Cc1c[nH]c(/C=C2\C(=O)Nc3ccccc32)c1CCC(=O)O,102,107,112,103,89.8,90.1,69.7,51.6,42.6,26.7,39,61.2,83.1,83.6,64.7,72.7,49.3,50.6,34.1,27.6,28.1,26.6,107,105,99.6,94.7,90.8,75.8,67.6,47.1,33.6,25.7,46.5
CC1SC/2=C(C(O)=O)/C(=O)C3=CC(=C(C=C3N12)N4CCN(CC4)C\C5=C(C)\OC(=O)O5)F (stereo not drawn),–,–,–,–,–,–,–,–,–,–,–,61.5,119,128,121,124,123,132,111,121,114,112,47.8,125,143,130,133,102,140,126,115,116,104
O=C/1\C=C(/OC(=C1)/C2=C3SC4=C(SC3=CC=C2)C=CC=C4)N5CCOCC5,74.3,84.1,92.6,21.5,99.7,105,102,104,96.3,90.3,86.7,85.8,92.7,101,15.8,109,117,108,105,106,105,112,91.5,87.6,88,15.5,93,99.1,96,108,91.4,85.5,91.3
CNC(=O)c1cccc(-c2ccc3c(N4CCOC[C@@H]4C)nc(N4CCOC[C@@H]4C)nc3n2)c1,97.5,102,85.8,77.2,73.2,63.7,62.6,47.8,37.6,38.6,23.1,110,98.1,97,93.3,84.4,77.6,78.7,56.1,47.3,32.9,17.9,97.7,95.9,85.3,76,69.6,64.1,58.6,55.3,43,35,20.7
O=C1c2c(O)cccc2[C@H]([C@@H]2O[C@H](CO)[C@@H](O)[C@H](O)[C@H]2O)c2cc(CO)cc(O)c21,99.7,39,110,105,112,111,116,108,112,116,108,89.4,30.7,92.8,84,98.2,96.3,106,91.3,93,93.5,106,94,27.4,92.4,96.7,102,101,114,109,112,90.1,119
C[C@H](NC(=O)C(=O)Nc1ccccc1C(C)(C)C)C(=O)N[C@@H](CC(=O)O)C(=O)COc1c(F)c(F)cc(F)c1F,89.4,106,103,73.1,117,113,123,104,58.4,12.6,18.2,99.5,103,117,78,119,112,127,104,64.9,9.34,5.77,90.8,109,104,74.8,118,114,113,109,56.9,10.3,6.8
COc1ccc(/C=C\c2cc(OC)c(OC)c(OC)c2)cc1O,27.3,26.8,29.2,27.9,19.5,15.9,16.8,12.7,8.59,6.14,3.96,20,22.4,23,15.1,8.98,7.29,7.3,5.54,5.21,3.08,2.03,23.3,28.5,33.5,25.2,12.6,10.5,9.81,7.46,6.37,4.4,2.55
Cc1ccc(-n2nc(C(C)(C)C)cc2NC(=O)Nc2ccc(OCCN3CCOCC3)c3ccccc23)cc1,78.7,94,91.9,90.8,86.7,100,84,86.2,82.2,63.7,61.8,96.6,115,104,103,87.1,87.1,84.1,80.8,83.6,64,74.8,89.9,97.9,79.6,94.1,92,90,83.7,84.7,84.1,51.7,58.8
Nc1ccccc1NC(=O)c1ccc(CNc2nccc(-c3cccnc3)n2)cc1,98.4,101,117,109,119,110,73.1,25.5,8.57,6.62,7.25,89.7,94.4,91.6,97.6,105,105,69.4,21.8,7.2,6.22,6.49,92.7,111,106,106,117,105,62.8,17.5,7.07,6.52,7.92
Fc1ccc(C(c2ccc(F)cc2)N2CCN(C/C=C/c3ccccc3)CC2)cc1,113,126,109,102,116,76.8,111,109,55.8,96.2,81.6,–,–,–,–,–,–,–,–,–,–,–,–,–,–,–,–,–,–,–,–,–,–
O=C(O)c1ccc2cc(-c3ccc(O)c(C45CC6CC(CC(C6)C4)C5)c3)ccc2c1,–,–,–,–,–,–,–,–,–,–,–,120,129,114,118,118,93.1,41.7,19.8,10.5,9.46,8.21,–,–,–,–,–,–,–,–,–,–,–
CC/1=C/N([C@@H]2C[C@@H](O)[C@H](CO)O2)C(=O)NC1=O,78.6,82,71.8,94.7,74,75.8,86.4,84.1,54.1,67.9,30.7,113,97.1,100,97.4,76.5,99.3,115,95.8,53.2,80.4,38,81.7,74.4,76.5,79.2,45.6,64.3,73.7,62.3,44.3,56.9,29.3
O=C(O)c1ccccc1C(=O)Nc1ccc(-c2ccccc2)cc1,63.8,130,117,124,119,118,130,124,127,128,88.5,–,–,–,–,–,–,–,–,–,–,–,–,–,–,–,–,–,–,–,–,–,–
C1Cc2[nH]nc(-c3nn[nH]n3)c2C1,91.4,101,113,114,107,104,128,128,120,116,100,112,122,119,128,125,137,129,163,136,145,140,115,129,125,127,141,162,145,141,149,144,162
ClC1=CC=C(CCCOC/2=N/NC(=O)C(=C2NCC3=CN=CC=C3)/Br)C=C1,105,115,112,115,116,115,70.8,30.2,32.7,16,7.78,121,119,130,113,104,114,103,65.1,72.2,26.9,8.69,116,133,123,112,125,126,101,93.8,84.1,49.7,10
FC(F)(F)c1ccc(Nc2nc3cc(Oc4ccnc(-c5ncc(C(F)(F)F)[nH]5)c4)ccc3[nH]2)cc1,108,97.7,112,116,121,117,118,121,106,82.7,18.4,120,114,117,113,125,117,100,120,114,80.8,4.03,–,–,–,–,–,–,–,–,–,–,–
CC[C@H]1OC(=O)[C@H](C)[C@@H](O[C@H]2C[C@@](C)(OC)[C@@H](O)[C@H](C)O2)[C@H](C)[C@@H](O[C@@H]2O[C@@H](C)C[C@H](N(C)C)[C@H]2O)[C@](C)(O)C[C@@H](C)C(=O)[C@H](C)[C@@H](O)[C@]1(C)O,79.6,80.8,87.8,95.4,80.6,85.6,105,81.4,89.8,82.3,32.2,83,94.3,101,102,90,105,106,106,94.8,35,18.7,79.5,84.9,84.7,96.9,89.4,94.5,92.2,86.8,80.6,80.7,24.5

# Reference: the supplement of paper PMC11451515
